Measured values reported in patent EP3833345B1, “SMALL MOLECULE-INHIBITORS OF 6-PHOSPHOFRUCTO-1-KINASE FOR REDUCING LACTATE GENERATION BY CANCER CELLS” (Kemijski Institut, priority 2018, dated 2020).
Entries after “also recorded” stand apart in the source; their conditions may differ.

How the values were obtained:
[1] = test system: Jurkat cells; assay: long-term fed-batch cultivation of Jurkat cells (18 days); conditions: 100 µM, fed-batch, 18 days
[2] = test system: MDA-MB-231 cells; assay: cytotoxicity in MDA-MB-231 cells (LDH kit); format: cell-based; conditions: for average percentages of dead cells, MDA-MB-231, sequential re-insertion: sequential addition at 24-hour intervals, 92 hours, average over medium without and with inhibitor; for average percent of dead MDA-MB-231 cells: single addition, average over control and different concentrations of inhibitor
Procedure: (§1) Lactate generation, growth yield and survival under normal and inhibitory conditions of three different tumorigenic cells lines were determined in more detailed measurements. […] Cytotoxicity was measured by the Lactate dehydrogenase (LDH) kit (Roche).
Inhibitors No. 23, 29, 30 and 31 were tested for preventing lactate generation by the MDA-MB-231 cells.

[3] = test system: Jurkat cells; assay: NADH levels in Jurkat cells (NADH/NAD fluorometric assay kit); format: cell-based, human; conditions: 24 hours after addition, different concentrations
Procedure: By inhibiting modified PFK-M enzyme in the cancer cells, glycolytic flux should be decreased and concomitantly NADH levels reduced. To verify that, the amounts of reduced pyridine nucleotide was measured by NADH/NAD fluorometric assay kit (Abcam). The Jurkat cells were seeded into the wells of 96 wells plate at 5×10^5 cells per mL. The untreated cells (control) and the cells with specified amounts of added Inhibitors No. 3 and No. 9 were incubated for 24 hours.

[4] = test system: Jurkat cells; assay: Seahorse XF assay (ECAR and OCR) in Jurkat cells; format: cell-based, human
Procedure: The efficiency of Inhibitors No. 3 and No. 9 was also tested by the determinations of glycolytic capacities in Jurkat cells in the presence and absence of inhibitors. For this purpose, Seahorse XF assay (Agilent Technology) was performed that enables non-destructive measurements of extracellular acidification rate (ECAR) and oxygen consumption rate (OCR) of tested cells. The cells were incubated in […] GlutaMAX medium with 10% FBS and 24 hours before the experiment inhibitors were added (100 µM). Non-adherent Jurkat cells (1×10^6 per mL) were stuck to the bottom of the wells by poly-I-lysine. The experiment was conducted essentially as recommended by Seahorse XF protocol and after 20 minutes of incubation, 1 µM of oligomycin A (ATP synthase inhibitor) and 0,25 µM of Carbonyl cyanide-4-(trifluoromethoxy)phenylhydrazone (FCCP) (mitochondrial oxidative phosphorylation uncoupler) were added to the cells. […] Reduced lactate excretion by the cells treated with both inhibitors might be responsible for reduced ECARs. Although the addition of oligomycin A and FCCP increased the extracellular acidification rate by the cells treated with both inhibitors, similar increase of ECAR was also observed in the untreated cells. […] It implies that inhibited PFK1 enzymes might reduce glycolytic flux and prevent the need for pyruvate reduction into lactate by re-oxidizing redundant cytosolic NADH. Under such conditions pyruvate can enter mitochondria, replenishing tri-carboxylic acids (TCA) cycle and fuelling oxidative respiration.

[5] = test system: Jurkat cells; assay: lactate excretion by Jurkat cells (enzymatic L-lactic acid kit); format: cell-based, human
Procedure: The cells were incubated in 1 mL volume (24 well plates) at 5% CO2 and 37°C. The inhibitors were added in 100 µM concentration. As a control, equivalent amount of DMSO as used for the addition of inhibitors was supplemented to the medium. The tests started with 1×10^5 cells per mL. Extracellular lactate excreted by the Jurkat cells was measured in the supernatant of the growth medium after the cells were removed by centrifugation at 1500 rpm for 5 minutes. Lactate concentration was determined enzymatically using L-Lactatic acid kit (K-LATE, Megazyme, Ireland).
Measurements of lactate excretion in the tumorigenic Jurkat cells and the cells treated with two selected inhibitors at different concentrations were repeated by more detailed measurements. The growth conditions were identical to those described in Experiment 2. No significant difference in lactate excretion could be observed by the treated and untreated cells during the initial stage of growth that lasted for approximately 12 hours. Later on lactate excretion by the Jurkat cells ceased in the presence of both inhibitors.

[6] = test system: COLO 829 cells; assay: lactate excretion by COLO 829 cells; format: cell-based; conditions: for lactate formation in COLO 829 cells, sequential re-insertion: inhibitor added 8 hours after inoculation, then at 24-hour intervals, low concentrations (from 10 µM)
Procedure: (§2) Preliminary in vivo tests were run by measuring lactate production by three different tumorigenic cell lines. Again, 100 µM concentrations of tested compounds have been added to the medium. For the experiment, the following tumorigenic cells lines originating from different tumours were tested: Caco-2 cells (Figure 10a), originating from colorectal adenoma carcinoma; COLO 829 cells (Figure 10b), isolated from melanoma; and MDA-MB-231 cells (Figure 10c) derived from metastatic phase of mammary/breast cancer. All adherent cell lines were grown in the RPMI 1640 GlutaMAX substrate (Thermo Fisher) supplemented with 10% FBS.
On the basis of preliminary results, inhibitors No. 23, 29, 30 and 31 were tested on COLO 829 cells. […] No significant discrepancies of total cell numbers in respect to the control were observed due to the different concentrations of inhibitors in the medium (Figure 13e). The average percent of dead COLO 829 cells in the control and in the presence of different concentrations of inhibitors were as follows: inh. 23 (9,23±0,6%), inh. 29 (9,31±0,73%), inh. 30 (8,27±0,49%), inh. 31 (8,26±0,38%). Additionally, cytotoxicity of inh. 3 (5,01±1,08%) and 9 (3,65±0,78%) for COLO 829 cells were also determined. No dose dependent decrease of survival was observed by any inhibitor.
(§3) A decrease in inhibitory effectiveness of some compounds was observed after certain period of time (Example 11). […] Therefore, the influence of selected inhibitors was assessed by sequential re-insertion of low concentrations of inhibitors at indicated time points. The inhibitors were first added to the medium 8 hours after the inoculation followed by periodically additions at 24-hour intervals (marked by arrows).
No significant cytostatic (Figure 16f) of cytotoxic effect of inhibitors could be detected after 92 hours of incubation despite of sequential addition of various concentrations of inhibitors. The following average percentages of dead cells were perceived in the medium without and media with inh. 3 (1,95±0,15%) inh. 9 (1,70±0,14%), inh. 23 (2,40±0,09%), inh. 29 (1,66±0,25%) and inh. 30 (1,38±0,18%). No detrimental effects of increased inhibitors concentrations on cell deaths have been observed.

[7] = test system: Jurkat cells; assay: growth and survival of Jurkat cells (Countess, Trypan blue); format: cell-based
Procedure: The effects of both inhibitors were tested also on growth of the non-adherent Jurkat cells. Total amount of cells and the number of dead cells was determined by the Countess (Invitrogen, Carlsbad, CA). […].

[8] = test system: Caco-2 cells; assay: cytotoxicity in Caco-2 cells (lactate dehydrogenase (LDH) kit); format: cell-based; conditions: for average percent of dead cells, Caco-2: single addition, average over control and different concentrations of inhibitor
Procedure: as §1

[9] = test system: COLO 829 cells; assay: cytotoxicity in COLO 829 cells (LDH kit); format: cell-based; conditions: for average percentages of dead cells, COLO 829, sequential re-insertion: sequential addition at 24-hour intervals, 92 hours, average over medium without and with inhibitor; for average percent of dead COLO 829 cells: single addition, average over control and different concentrations of inhibitor
Procedure: as §1

[10] = target: T1, modified (70 kDa) 6-phosphofructo-1-kinase (PFK-L), sfPFK-L (Homo sapiens, UniProt P17858); assay: in vitro inhibition of purified recombinant modified PFK-L fragment
T1 sequence (P17858 1-645 limits assumed): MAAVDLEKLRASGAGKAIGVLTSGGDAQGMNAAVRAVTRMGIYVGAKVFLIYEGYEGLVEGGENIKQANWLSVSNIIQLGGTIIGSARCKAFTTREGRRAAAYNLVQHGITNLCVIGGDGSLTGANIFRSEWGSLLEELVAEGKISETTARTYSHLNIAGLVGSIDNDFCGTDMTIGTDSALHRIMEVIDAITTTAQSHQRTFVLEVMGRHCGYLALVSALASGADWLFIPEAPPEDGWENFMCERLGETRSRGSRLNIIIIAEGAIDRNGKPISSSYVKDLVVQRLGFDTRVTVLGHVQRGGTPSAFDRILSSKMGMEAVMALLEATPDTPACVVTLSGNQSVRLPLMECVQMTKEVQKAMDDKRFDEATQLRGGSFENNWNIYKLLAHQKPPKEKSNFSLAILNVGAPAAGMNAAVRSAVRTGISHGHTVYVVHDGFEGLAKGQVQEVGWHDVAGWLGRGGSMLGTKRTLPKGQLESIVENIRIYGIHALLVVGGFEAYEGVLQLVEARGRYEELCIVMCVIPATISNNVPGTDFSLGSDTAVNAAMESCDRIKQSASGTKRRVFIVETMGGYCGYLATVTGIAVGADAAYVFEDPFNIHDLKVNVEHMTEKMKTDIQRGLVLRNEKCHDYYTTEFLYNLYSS

[11] = test system: Caco-2 cells; assay: total cell numbers of Caco-2 cells at end of incubation; format: cell-based; conditions: single addition, end of incubation (92 hours)
Procedure: as §1

[12] = test system: MDA-MB-231 cells; assay: lactate excretion by MDA-MB-231 cells; format: cell-based; conditions: single addition, different concentrations
Procedure: as §2
Inhibitors No. 23, 29, 30 and 31 were tested for preventing lactate generation by the MDA-MB-231 cells. […] No significant discrepancies of total cell numbers were observed (Figure 14e) due to the different concentrations of inhibitors in the medium. […] The average percent of dead MDA-MB-231 cells in the control and in the presence of different concentrations of inhibitors were as follows: inh. 23 (2,98±0,2%), inh. 29 (3,37±0,39%), inh. 30 (3,4±0,21%), inh. 31 (6,87±0,44%). Additionally, cytotoxicity of inh. 3 (7,2±0,47%) and 9 (6,59±0,29%) for MDA-MB-231 cells were also determined. No dose dependent decrease of survival was observed by any inhibitor.
as §3
In MDA-MB-231 calls similar results to those found in Caco-2 cells were observed. […] No significant cytostatic (Figure 17f) or cytotoxic effect of inhibitors could be detected after 92 hours of incubation despite of sequential addition of various concentrations of inhibitors. The following average percentages of dead cells were perceived in the medium without and with inh. 3 (2,05±0,18%), inh. 9 (1,85±0,05%), inh. 23 (2,20±0,15%), inh. 29 (1,54±0,16%) and inh. 30 (2,00±0,18%). No detrimental effects of increased inhibitors concentrations on cell deaths have been observed.

[13] = test system: Caco-2 cells; assay: lactate excretion by Caco-2 cells; format: cell-based; conditions: single addition, different concentrations (20-80 µM)
Procedure: as §2, with “Again, 100 µM concentrations of tested compounds have been added to the medium.” left out, “cancer.” for “cancer. All adherent cell lines were grown in the RPMI 1640 GlutaMAX substrate (Thermo Fisher) supplemented with 10% FBS.”
as §1
Therefore, the influence of selected inhibitors was assessed by sequential re-insertion of low concentrations of inhibitors at indicated time points. The inhibitors were first added to the medium 8 hours after the inoculation followed by periodically additions at 24-hour intervals (marked by arrows).

| SMILES | average percentages of dead cells, MDA-MB-231, sequential re-insertion [2] | average percent of dead MDA-MB-231 cells [2] | lactate formation in COLO 829 cells, sequential re-insertion [6] | average percent of dead cells, Caco-2 [8] | average percentages of dead cells, COLO 829, sequential re-insertion [9] | average percent of dead COLO 829 cells [9] | IC50 [10] | also measured |
| --- | --- | --- | --- | --- | --- | --- | --- | --- |
| COc1ccc(-c2cccc(-c3ccn(Cc4noc(C)n4)n3)c2)nn1 [Inhibitor No. 9, 3-methoxy-6-(3-{1-[(5-methyl-1,2,4-oxadiazol-3-yl)methyl]-1H-pyrazol-3-yl}phenyl)pyridazine] | 1,85±0,05% | 6,59±0,29% | strong reduction of lactate formation | 3,33±0,14% | 1,70±0,14% | 3,65±0,78% | – | viability of the Jurkat cells, long-term [1]: remained unchanged; number of cells, long-term ([1]; fresh medium with inhibitor every 48 hours): steadily declined; NADH levels [3]: steadily decreased in dose dependent manner; ECAR and OCR values prior to the addition of oligomycin A and FCCP ([4]; 100 µM added 24 hours before the experiment, treated versus untreated cells): untreated Jurkat cells revealed higher ECAR and OCR values; oxygen consumption rate after addition of oligomycin A and FCCP ([4]; 100 µM, 1 µM oligomycin A and 0,25 µM FCCP, versus untreated cells): slightly stronger affect; time at which lactate production was averted ([5]; inhibitor concentrations lower than 200 µM): 36 h; lactate excretion by the Jurkat cells ([5]; preliminary test, 100 µM inhibitor, followed for 48 hours, versus DMSO control): Significantly lowered lactate excretions; also recorded: effectively prevented excretion; dead cells ([7]; Jurkat cells stained with Tripan blue): 3,76±0,3%; effect on growth of Jurkat cells (total cell numbers) ([7]; different concentrations, 72 hours): no effect; average percentages of dead cells, Caco-2, sequential re-insertion ([8]; sequential addition at 24-hour intervals, 92 hours, average over medium without and with inhibitor): 5,05±0,62% |
| Nc1nnc(-c2cc(-c3ccc(O)cc3)on2)o1 [Inhibitor No. 30, 4-[3-(5-amino-1,3,4-oxadiazol-2-yl)isoxazol-5-yl]phenol] | 2,00±0,18% | 3,4±0,21% | slightly weaker inhibitions | – | 1,38±0,18% | 8,27±0,49% | 10 µM | lactate excretion by COLO 829 cells ([6]; single addition, different concentrations): strongest reductions of lactate excretion; total cell numbers, Caco-2 [11]: minor dose dependent reductions in total cell numbers; lactate excretion by MDA-MB-231 cells [12]: strong inhibition |
| O=C(CCS(=O)(=O)c1ccccc1)Nc1nnc(-c2ccno2)o1 [Inhibitor No. 32, 3-(benzenesulfonyl)-N-(5-isoxazol-5-yl-1,3,4-oxadiazol-2-yl)propanamide] | – | – | – | 3,97±0,18% | – | – | 8 µM | lactate generation by Caco-2 cells [13]: strong inhibition at all tested concentrations |
